Legend:
[1] = system: SREBP1, SPERBP2, FAS, and ACACA; assay: Comparison of retinoic acid signal transduction pathway modifiers: sebum-related gene expression in sebaceous gland cells; assay type: cell-based, human; settings: for effect on sebum-related gene expression (SREBP1, SPERBP2, FAS, ACACA): sebaceous gland cells treated with 1 μM and 10 μM of each material, FIG. 5
Description: Primary sebocyte and human sebocyte complete medium were purchased from Celprogen and used.
After that, 1 ml of Trizol (Invitrogen) was added to the cells, and RNA was isolated from the cells according to the RNA isolation method (Invitrogen). The RNA was quantified using a UV detector (HEWLETT PACKARD) at 260 nm and subject to RT-PCR (reverse transcription-polymerase chain reaction).
(§1) Taqman probes were used for genetic analysis of SREBP1(Hs02561944_s1), SREBP2(Hs01081781_m1), fatty acid synthase(FAS: Hs01005622_m1), Acetyl-CoA Carboxylase(ACACA: Hs01046047_m1) for each sample, and normalization was performed with respect to the complementary gene RPL13A (Hs04194366_g1), and the result is shown in FIG. 4.

[2] = system: Acetyl-CoA Carboxylase (ACACA); assay: Genetic analysis of cholesterol/fatty acid transcription factors in sebaceous gland cells: ACACA; assay type: cell-based, human; settings: primary sebocytes, cultured 2 days, RT-PCR, FIG. 4
Description: (§2) Primary sebocyte and human sebocyte complete medium were purchased from Celprogen and used. The sebaceous gland cells were dispensed in a 60 mm cell culture dish at a density of 1.25×10^4 cells/dish, and then cultured in a CO2 incubator under the condition of 37° C. and 5% CO2 at about 80% confluency. Thereafter, 0 μM, 1 μM, and 10 μM of the compound of Chemical Formula 1 (Seletinoid G) were treated with the cells, respectively, and the cells were cultured for 2 days, and then changes in transcription factors related to sebum biosynthesis were confirmed.
(§3) The cells were treated with the material of Example 3, and then, cultured for 2 days, and then, the cell growth medium was removed. After that, 1 ml of Trizol (Invitrogen) was added to the cells, and RNA was isolated from the cells according to the RNA isolation method (Invitrogen). The RNA was quantified using a UV detector (HEWLETT PACKARD) at 260 nm and subject to RT-PCR (reverse transcription-polymerase chain reaction).
as §1

[3] = system: fatty acid synthase (FAS); assay: Genetic analysis of cholesterol/fatty acid transcription factors in sebaceous gland cells: FAS; assay type: cell-based, human; settings: primary sebocytes, cultured 2 days, RT-PCR, FIG. 4
Description: as §2, §3, §1

[4] = system: retinoic acid receptor (RAR); settings: from paper of the Society of Cosmetic Scientists of Korea (2003); cited from earlier work
sebaceous gland cells = assay: Cytotoxicity in sebaceous gland cells during the comparison of Example 5; assay type: cell-based, human; settings: 10 μM
SREBP1 = assay: Genetic analysis of cholesterol/fatty acid transcription factors in sebaceous gland cells: SREBP1; assay type: cell-based, human; settings: primary sebocytes, cultured 2 days, RT-PCR, FIG. 4
Description: as §2, §3, §1

SREBP2 = assay: Genetic analysis of cholesterol/fatty acid transcription factors in sebaceous gland cells: SREBP2; assay type: cell-based, human; settings: primary sebocytes, cultured 2 days, RT-PCR, FIG. 4
Description: as §2, §3, §1

## Clc1cccc(C(c2ccc3[nH]cnc3c2)n2ccnc2)c1 (stereo not drawn) [liarozole, reference compound]
[1]
  effect on sebum-related gene expression (SREBP1, SPERBP2, FAS, ACACA): did not show a significant difference

## O=C(/C=C/c1ccc2c(c1)OCO2)OCc1cc(=O)c(O)co1 [Seletinoid G, (5-hydroxy-4-oxopyran-2-yl)methyl (E)-3-(1,3-benzodioxol-5-yl)prop-2-enoate]
[2]; 1 μM
  expression level of ACACA reduced by: ~30%
[2]; 10 μM
  expression level of ACACA reduced by: about 60%
[3]; 1 μM
  expression level of FAS reduced by: ~30%
[3]; 10 μM
  expression level of FAS reduced by: ~45%
[4]
  binding to retinoic acid receptor (specificity): specifically binds to RARγ
Sebaceous gland cells
  cytotoxicity: without causing cytotoxicity
SREBP1; 1 μM
  expression level of SREBP1 reduced by: about 40%
SREBP1; 10 μM
  expression level of SREBP1 reduced by: about 60%
SREBP2; 1 μM
  expression level of SPERBP2 reduced by: about 40%
SREBP2; 10 μM
  expression level of SPERBP2 reduced by: ~55%
[1]
  effect on sebum-related gene expression (SREBP1, SPERBP2, FAS, ACACA): effect of suppressing sebum-related gene expression
[1]; sebaceous gland cells, 10 μM
  reduction of the expression level of the transcription factors (SREBP1a, SPERBP2, FAS, ACACA): more than 60%

## CC1=C(/C=C/C(C)=C/C=C/C(C)=C/C(=O)O)C(C)(C)CCC1 [retinoic acid, reference compound]
Sebaceous gland cells
  cytotoxicity: some cytotoxicity

## CC1=C(/C=C/C(C)=C/C=C/C(C)=C/C(=O)Nc2ccc(O)cc2)C(C)(C)CCC1 [fenretinide, reference compound]
[1]
  effect on sebum-related gene expression (SREBP1, SPERBP2, FAS, ACACA): effect of suppressing sebum-related gene expression

From patent publication US12514805B2, “Composition for suppressing skin irritation or inhibiting sebum secretion” (AMOREPACIFIC CORPORATION, priority 2022, dated 2026)
